The source of these data is patent US8518939B2, “6-pyrimidinyl-pyrimid-4-one derivative” (Mitsubishi Tanabe Pharma Corporation, priority 2007, dated 2013).

Data set [1] addresses CYP2D6 (Homo sapiens, UniProt P10635). Put plainly: Inhibitory activity on CYP2D6, human recombinant CYPs. Particulars: human recombinant CYP2D6, substrate ethylene glycol ester of luciferin-6'-methyl ether; read-out: CYP 2D6 inhibition, IC50 value. The data set is classed as in vitro ADME. On the procedure: The purpose of this pharmacokinetic study was to investigate the inhibitory effects of test compounds on the specific metabolic activity of human CYP isozymes using human recombinant CYPs in vitro. […] The specific substrate and positive control is ethylene glycol ester of luciferin-6′-methyl ether and quinidine, respectively. The substrate for the CYP isozyme was incubated with human recombinant CYPs in the presence or absence of the test compounds and the metabolic activity of the CYP isozyme was determined. The reaction mixture was preincubated at 37° C. without NADPH generating system. The reaction was started by the addition of NADPH generating system, and then terminated by the addition of acetonitrile. The activities of the human CYP isozymes were measured by fluorescence signal (CYP2D6) of reaction mixture.

Data set [2] has as its system scopolamine-treated mice. The experiment in a line: Object recognition test, 3 h inter-trial interval, scopolamine-induced episodic memory deficit.

Where only a bound is given, the exact number is not on record here.

CYP2D6, sequence (P10635 whole entry): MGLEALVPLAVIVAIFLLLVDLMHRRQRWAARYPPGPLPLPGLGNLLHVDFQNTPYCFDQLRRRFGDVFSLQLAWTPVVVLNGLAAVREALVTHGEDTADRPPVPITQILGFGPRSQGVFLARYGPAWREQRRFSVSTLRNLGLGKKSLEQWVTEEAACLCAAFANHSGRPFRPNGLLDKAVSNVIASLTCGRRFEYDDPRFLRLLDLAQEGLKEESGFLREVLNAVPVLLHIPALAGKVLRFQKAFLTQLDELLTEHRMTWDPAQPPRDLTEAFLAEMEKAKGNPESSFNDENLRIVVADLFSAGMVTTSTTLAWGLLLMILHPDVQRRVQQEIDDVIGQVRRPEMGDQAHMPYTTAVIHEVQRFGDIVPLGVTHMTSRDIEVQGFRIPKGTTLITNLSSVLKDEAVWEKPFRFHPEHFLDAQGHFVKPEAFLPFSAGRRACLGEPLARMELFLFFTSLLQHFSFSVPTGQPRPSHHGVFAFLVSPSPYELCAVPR

`Cn1c(N2CCOC(c3nc(-c4ccccc4)no3)C2)nc(-c2ccncn2)cc1=O` (stereo not drawn) [Compound 1, 1-Methyl-2-[2-(3-phenyl-[1,2,4]oxadiazol-5-yl)-morpholin-4-yl]-1H-[4,4′]bipyrimidinyl-6-one]: in data set [1], the IC50 (in general, the concentration that inhibits the measured activity by half) is above 50 µM.
On to `CN1[C@@H]2C[C@@H](OC(=O)[C@H](CO)c3ccccc3)C[C@H]1[C@@H]1O[C@@H]12` [scopolamine, reference compound], for which, in data set [2] (scopolamine 1 mg/kg 30 minutes before acquisition, 0 mg/kg test compound, 3 h interval), the “recognition index (RI)” value is 49.9%.
As for `Cn1c(N2CCOC(c3noc(-c4ccccc4)n3)C2)nc(-c2ccncn2)cc1=O` (stereo not drawn) [Compound 2, 1-Methyl-2-[2-(5-phenyl-[1,2,4]oxadiazol-3-yl)-morpholin-4-yl]-1H-[4,4′]bipyrimidinyl-6-one], in data set [1], the concentration for half-maximal inhibition (IC50) was above 25 µM.
As to `Cn1ccnc1-c1ccc(C2CN(c3nc(-c4ccncn4)cc(=O)n3C)CCO2)cc1` (stereo not drawn) [Compound 4, 1-Methyl-2-{2-[4-(1-methyl-1H-imidazol-2-yl)-phenyl]-morpholin-4-yl}-1H-[4,4′]bipyrimidinyl-6-one], the melting point (commonly the temperature of the solid-liquid transition) is 179.8 °C (dec.). For the same compound, the IC50 in data set [1] was above 50 µM.
As to `Cc1nc(-c2ccc([C@H]3CN(c4nc(-c5ccncn5)cc(=O)n4C)CCO3)cc2)no1` [Compound of the present invention], the melting point came out at 191 °C. Further, the half-inhibitory concentration (IC50) in data set [1] was above 50 µM. Besides, in data set [2] (3 mg/kg oral), the “effect on episodic memory deficits induced by scopolamine” value is listed as “ineffective”. Besides, in data set [2] (scopolamine-treated mice), the “MED, prevention of episodic memory deficits” value is listed as 10 mg/kg.
